pIC50: −log10 of the molar value. In brackets after ≈: the same amount, converted by molar mass. Structures can show the parent of a compound that is named as a salt.
Experiments:
MCF7 [1] = test: Cytotoxicity against human MCF7 cells assessed as cell growth inhibition by MTT assay; format: functional, cell-based
[2] = target: Platelet-activating factor receptor (Homo sapiens, UniProt P25105); test: Antagonist activity at PAFR (unknown origin); format: functional
HCT-116 [3] = test: Cytotoxicity against human HCT-116 cells assessed as cell growth inhibition incubated for 72 hrs by CellTiter 96 Aqueous One Solution Cell Proliferation assay; format: functional, cell-based; details: HCT-116, 72 h
HCT-116 [4] = test: Cytotoxicity against human HCT-116 cells assessed as cell growth inhibition by MTT assay; format: functional, cell-based
[5] = tested on: Mycolicibacterium smegmatis; test: Antibiofilm activity against Mycobacterium smegmatis assessed as inhibition of biofilm formation incubated for 4 days; format: functional; details: 96 h, time 4 day
HL-60 = test: Inhibition of cell adhesion of human HL-60 cells to human LPS-stimulated HUVEC cells incubated for 4 hrs with HUVEC cells followed by MTT-labeled HL-60 cells addition measured after 40 mins by absorbance based microplate reader analysis; format: functional
[6] = Inhibition of Influenza virus neuraminidase; parameters: species or system unidentified influenza virus
RAW264.7 = test: Antiinflammatory activity in LPS-stimulated mouse RAW264.7 cells assessed as inhibition of NO production incubated for 2 hrs followed by LPS stimulation measured after 48 hrs […]; format: functional, cell-based
[7] = tested on: Panel NCI-60 (60 carcinoma cell lines); test: Cytotoxicity against human Panel NCI-60 (60 carcinoma cell lines) assessed as cell growth inhibition; format: functional, cell-based
HCT-116 [8] = test: Cytotoxicity against human HCT-116 cells assessed as cell growth inhibition; format: functional, cell-based
[9] = target: Tyrosine-protein phosphatase non-receptor type 1 (Homo sapiens, UniProt P18031); test: Inhibition of recombinant human PTP1B expressed in Escherichia coli using p-nitrophenyl phosphate as substrate preincubated for 15 mins followed by substrate addition measured after 60 mins by absorbance based assay
Chain of Tyrosine-protein phosphatase non-receptor type 1 (P18031 whole entry): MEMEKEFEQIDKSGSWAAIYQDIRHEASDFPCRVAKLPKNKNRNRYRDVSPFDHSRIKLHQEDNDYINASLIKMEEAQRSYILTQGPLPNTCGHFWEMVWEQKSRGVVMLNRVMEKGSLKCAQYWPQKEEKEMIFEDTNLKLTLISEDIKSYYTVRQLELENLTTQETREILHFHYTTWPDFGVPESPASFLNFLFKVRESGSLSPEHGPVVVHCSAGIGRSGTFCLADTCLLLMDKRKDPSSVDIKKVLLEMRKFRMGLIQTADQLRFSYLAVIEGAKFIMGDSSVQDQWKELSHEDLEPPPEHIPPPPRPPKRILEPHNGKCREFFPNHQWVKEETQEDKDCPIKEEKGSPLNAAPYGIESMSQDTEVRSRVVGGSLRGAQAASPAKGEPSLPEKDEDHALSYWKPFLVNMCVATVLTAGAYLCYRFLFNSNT

[10] = target: Tyrosine-protein phosphatase non-receptor type 2 (Homo sapiens, UniProt P17706); test: Inhibition of recombinant human TCPTP expressed in Escherichia coli using p-nitrophenyl phosphate as substrate preincubated for 15 mins followed by substrate addition measured after 60 mins by absorbance based assay
Chain of Tyrosine-protein phosphatase non-receptor type 2 (P17706 whole entry): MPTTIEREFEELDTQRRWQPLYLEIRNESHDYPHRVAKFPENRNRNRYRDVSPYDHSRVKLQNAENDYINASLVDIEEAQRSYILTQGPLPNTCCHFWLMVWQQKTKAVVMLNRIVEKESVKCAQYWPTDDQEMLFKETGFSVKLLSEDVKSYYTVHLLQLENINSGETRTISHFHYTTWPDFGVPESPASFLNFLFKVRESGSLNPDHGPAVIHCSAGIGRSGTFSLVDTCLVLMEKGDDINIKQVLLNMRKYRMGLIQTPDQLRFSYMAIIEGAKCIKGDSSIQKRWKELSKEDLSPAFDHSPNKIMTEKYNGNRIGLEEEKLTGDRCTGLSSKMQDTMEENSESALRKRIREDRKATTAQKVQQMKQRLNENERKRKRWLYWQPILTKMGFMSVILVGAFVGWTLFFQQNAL

[11] = target: T1, M-phase inducer phosphatase 2 (Homo sapiens, UniProt P30305); test: Inhibition of recombinant human CDC25B expressed in Escherichia coli using pnitrophenyl phosphate as substrate preincubated for 15 mins followed by substrate addition measured after 60 mins by absorbance based assay
T1 sequence (P30305 whole entry): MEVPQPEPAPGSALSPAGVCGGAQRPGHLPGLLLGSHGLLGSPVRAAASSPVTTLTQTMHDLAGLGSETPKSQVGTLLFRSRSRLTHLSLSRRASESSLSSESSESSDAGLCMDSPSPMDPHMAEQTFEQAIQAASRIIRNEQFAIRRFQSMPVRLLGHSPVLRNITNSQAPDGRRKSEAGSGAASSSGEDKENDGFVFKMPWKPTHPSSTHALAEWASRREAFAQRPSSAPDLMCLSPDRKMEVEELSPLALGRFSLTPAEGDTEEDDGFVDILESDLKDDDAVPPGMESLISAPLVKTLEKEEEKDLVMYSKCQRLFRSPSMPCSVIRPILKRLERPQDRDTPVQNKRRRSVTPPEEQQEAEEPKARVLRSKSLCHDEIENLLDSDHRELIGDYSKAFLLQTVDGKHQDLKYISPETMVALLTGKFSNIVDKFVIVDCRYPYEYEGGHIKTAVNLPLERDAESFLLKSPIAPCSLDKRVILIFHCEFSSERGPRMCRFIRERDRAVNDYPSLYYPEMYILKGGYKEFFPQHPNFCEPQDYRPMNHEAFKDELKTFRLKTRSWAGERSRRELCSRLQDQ

[12] = target: Tyrosine-protein phosphatase non-receptor type 6 (Homo sapiens, UniProt P29350); test: Inhibition of recombinant human SHP1 expressed in Escherichia coli using pnitrophenyl phosphate as substrate preincubated for 15 mins followed by substrate addition measured after 60 mins by absorbance based assay
Chain of Tyrosine-protein phosphatase non-receptor type 6 (P29350 whole entry): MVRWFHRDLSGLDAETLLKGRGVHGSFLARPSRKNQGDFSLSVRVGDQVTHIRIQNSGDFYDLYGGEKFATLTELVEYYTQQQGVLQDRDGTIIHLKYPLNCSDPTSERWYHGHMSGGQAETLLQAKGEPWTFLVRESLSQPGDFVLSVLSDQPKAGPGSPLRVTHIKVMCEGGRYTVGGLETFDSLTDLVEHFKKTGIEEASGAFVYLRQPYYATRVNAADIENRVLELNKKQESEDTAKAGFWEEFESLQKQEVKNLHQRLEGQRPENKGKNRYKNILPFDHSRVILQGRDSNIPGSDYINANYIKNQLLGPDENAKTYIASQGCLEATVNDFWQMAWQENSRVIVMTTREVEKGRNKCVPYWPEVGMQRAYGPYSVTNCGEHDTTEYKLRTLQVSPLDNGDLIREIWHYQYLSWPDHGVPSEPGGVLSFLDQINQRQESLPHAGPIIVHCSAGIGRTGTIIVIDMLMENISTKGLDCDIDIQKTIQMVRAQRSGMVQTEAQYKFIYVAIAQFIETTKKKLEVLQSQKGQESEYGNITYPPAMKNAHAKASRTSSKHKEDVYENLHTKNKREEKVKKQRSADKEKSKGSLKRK

MCF7 [13] = test: Antitumor activity against Adriamycin-resistant human MCF7 cells xenografted in athymic nude BALB/c mouse assessed as tumor growth inhibition at 5 mg/kg, iv measured every 4 days for 40 days by caliper method relative to control; format: functional; details: MCF7, 960 h, time 40 day, read-out: TGI

Chain of Platelet-activating factor receptor (P25105 whole entry): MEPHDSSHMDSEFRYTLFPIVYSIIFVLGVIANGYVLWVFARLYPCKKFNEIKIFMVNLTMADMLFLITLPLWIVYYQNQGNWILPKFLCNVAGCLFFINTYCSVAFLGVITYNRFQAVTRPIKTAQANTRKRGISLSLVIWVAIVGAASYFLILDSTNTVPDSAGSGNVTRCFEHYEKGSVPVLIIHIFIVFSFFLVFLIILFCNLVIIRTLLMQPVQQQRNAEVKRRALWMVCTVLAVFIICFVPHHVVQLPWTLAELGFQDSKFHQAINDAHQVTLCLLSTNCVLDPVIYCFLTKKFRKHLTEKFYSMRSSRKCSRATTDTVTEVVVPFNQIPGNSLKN

C=C[C@]1(C)C=C2C(=O)C(O)=C3C(C)(C)CCC[C@]3(C)[C@@]2(O)CC1
pIC50 (MCF7 [1]): 4.44

C/C1=C\CC[C@]2(C)O[C@@H]3C[C@@H](C)[C@@](C)(CC1)C1=C3[C@](O)(OC1)[C@H]2O
pIC50 [2]: 5.55

C=C1CC[C@H](Cl)C(C)(C)[C@@H]1C[C@@]12OC(C)(C)[C@H](Cl)C[C@]1(Cl)C(=O)C1=C(C2=O)C(=[N+]=[N-])C(=O)C(C)=C1O
pIC50 (HCT-116 [3]): 6.30

CC(C)=CCn1c2ccc(Br)c(=O)c-2nc2ccccc21
pIC50 (HCT-116 [4]): 7.54

CC(C)=C/C=C\[C@H](C)[C@H]1CC[C@]2(C)C[C@H]3[C@H](C(=O)C[C@@]3(C)O)/C(C=O)=C\C[C@@H]12
MIC [5]: 25 µg/mL (≈ 64.9 µM)

CC(C)=C/C=C\[C@H](C)[C@H]1CC[C@]2(C)C[C@@H]3C(C)=CC(=O)[C@@H]3/C(C=O)=C\C[C@@H]12
MIC [5]: 6.23 µg/mL (≈ 17 µM)

C=C[C@@]1(C)CCC2=C([C@H]1O)[C@H](O)[C@]1(O)OC[C@@]23CCCC(C)(C)[C@@]31O
pIC50 (MCF7 [1]): < 4.15

C=C(CO)[C@@]1(O)[C@@H](O)[C@@]2(C)[C@H](CCC[C@@H]2C)C[C@@H]1O
pIC50 (HL-60): 4.81

C=C1[C@]23C(=O)O[C@@H](C)[C@@]2(O)C(=O)O[C@@]1(C)[C@H](O)C1=C(C)[C@@]2(C=CC(=O)OC2(C)C)CC[C@]13C
pIC50 [6]: 5.86

C=C1[C@@H](OC(C)=O)[C@@H]2[C@](C)(C(=O)C(O)=C3C(C)(C)C(=O)CC[C@]32C)[C@]2(C(=O)OC)C(=O)[C@@H](C)OC(=O)[C@]12C
pIC50 (RAW264.7): 4.87

C=C1[C@@H](OC(C)=O)[C@@H]2[C@](C)(C(=O)C(O)=C3C(C)(C)C(=O)C=C[C@]32C)[C@]2(C(=O)OC)C(=O)[C@@H](C)OC(=O)[C@]12C
pIC50 (RAW264.7): 4.87

C=C1COC(OC)[C@@]12C[C@H]1C[C@H](O)C[C@H](C)[C@@]1(C)C2 (stereo partly drawn)
pIC50 (HL-60): 4.94

C[C@H]1CC[C@@]23C1=C[C@@]1(C)CC[C@](C)(C[C@H](O)C(=O)[C@@](C)(O)CO)[C@H]1[C@@H]2CC[C@@H]3C
pIC50 [7]: 4.74

C=C[C@]1(C)C=C2C(=O)C(O)=C3C(C)(C)CC[C@@H](O)[C@]3(C)[C@@]2(O)CC1
pIC50 (HCT-116 [8]): 4.82

C[C@@H]1[C@@H](O)C=C2C(=O)[C@H]3O[C@@]3(C)CCC[C@H]3O[C@@]3(C)C[C@]1(C)[C@@]2(C)O
pIC50 [2]: 5.55

C[C@H]1CC[C@@]23C1=C[C@@]1(C)CC[C@](C)(C[C@H](O)[C@H](O)C(C)(C)O)[C@H]1[C@@H]2CC[C@@H]3C
pIC50 [7]: 4.74

CC(C)(O)[C@H]1OC2CC[C@@]3(C)[C@@](O)(CC[C@H]4C[C@]5(OCNc6ccccc65)C(=O)[C@@]43C)C2=CC1=O (stereo partly drawn)
pIC50 [9]: 5.77
pIC50 [10]: 5.77

C=C1[C@]23C(=O)O[C@@H](C)[C@@]2(O)C(=O)O[C@@]1(C)[C@H](OC(C)=O)C1=C(C)[C@@]2(C=CC(=O)OC2(C)C)CC[C@]13C
pIC50 [6]: 5.86

C/C1=C\CC[C@@H]2O[C@H]2C(=O)C2=CC[C@@H](C)[C@@](C)(C[C@@H]1O)[C@@H]2C
pIC50 [2]: 5.55

COC(=O)[C@]12[C@](C)(C(=O)[C@@]1(C)O)C(C)=C[C@H]1[C@]34CC[C@H](OC(C)=O)C(C)(C)[C@H]3[C@H](C[C@@]12C)OC4=O
pIC50 [11]: 4.74
pIC50 [12]: 4.64

C[C@@H]1CC=C2C(=O)[C@H]3O[C@]3(C)CC[C@@H]3O[C@@]3(C)CC[C@@]1(C)[C@@]2(C)O
pIC50 [2]: 5.55

C=C1CC[C@H](Cl)C(C)(C)[C@@H]1C[C@@]12OC(C)(C)[C@H](Cl)C[C@@]1(Cl)C(=O)c1c(cc(O)c(C)c1O)C2=O
pIC50 (HCT-116 [3]): 5.52

C=C1C2=CC[C@@H](C)[C@@]1(C)CC/C(C)=C/CC[C@H]1O[C@@H]1C2=O
pIC50 [2]: 5.60

C=C[C@]1(C)C=C2C(=O)C(O)=C3[C@](C)(CO)CC[C@@H](O)[C@]3(C)[C@@]2(O)CC1
pIC50 (HCT-116 [8]): 4.28

C=C[C@]1(C)C=C2C(=O)C(O)=C3C(C)(C)[C@@H](O)CC[C@]3(C)[C@@]2(O)[C@H](O)C1
pIC50 (MCF7 [1]): < 4.15

COC(=O)c1c(C)cc2c(c(C)c1=O)O[C@@]1(C)CC[C@H]3C(C)(C)OC(=O)C=C[C@]3(C)[C@@H]1C2
pIC50 (HCT-116 [8]): 4.86

COC(=O)c1c(C)cc2c(c(C)c1=O)O[C@@]1(C)CC[C@H]3C(C)(C)OC(=O)C[C@@H](O)[C@]3(C)[C@@H]1C2
pIC50 (HCT-116 [8]): 4.88

C=C1[C@@]2(CCC(=O)OC2(C)C)C[C@H](OC(=O)/C(C)=C/C)[C@@]2(C)[C@]34C(=C)[C@@]5(C)OC(=O)[C@@]3(O[C@@]12[C@H]5OC(C)=O)[C@H](C)OC4=O
pIC50 [6]: 5.86

COC(=O)c1c(C)cc2c(c(C)c1=O)O[C@@]1(C)CC[C@H]3C(C)(C)OC(=O)C[C@@H](OC(C)=O)[C@]3(C)[C@@H]1C2
pIC50 (HCT-116 [8]): 4.96

C=C1[C@@]2(CCC(=O)OC2(C)C)C[C@H](OC(=O)c2ccccc2)[C@@]2(C)[C@@]34C(=O)O[C@@H](C)[C@@]35O[C@@]12[C@@H](OC(C)=O)[C@](C)(OC5=O)C4=O
pIC50 [6]: 5.86

COC(=O)[C@@]12C(=O)[C@@](C)(O)[C@]1(C)C(C)=C[C@H]1[C@]34CC[C@H](OC(C)=O)C(C)(C)[C@H]3[C@H](C[C@@]12C)OC4=O
pIC50 [11]: 4.72
pIC50 [12]: 4.47

C=C1C23O[C@@]45C(=O)O[C@](C)(C(=C)[C@@]4(C(=O)O[C@H]5C)[C@]2(C)[C@@H](OC(=O)c2ccccc2)C[C@]12CCC(=O)OC2(C)C)[C@@H]3OC(C)=O
pIC50 [6]: 5.86

COC(=O)[C@@]12C(=O)[C@](C)(O)C(=O)[C@@H](C(C)=C1C)C1[C@]2(C)C[C@@H]2OC(=O)[C@]13CC[C@H](OC(C)=O)C(C)(C)[C@@H]23 (stereo partly drawn)
pIC50 [11]: 4.70
pIC50 [12]: 4.66

C=C(CO)[C@]1(O)[C@@H](O)[C@@]2(C)[C@H](CCC[C@@H]2C)C[C@@H]1O
pIC50 (HL-60): 4.68

C[C@H]1C[C@@H](O)[C@@]23C1=C[C@@]1(C)CC[C@](C)(C[C@H](O)[C@H](O)C(C)(C)O)[C@H]1[C@@H]2CC[C@@H]3C
pIC50 [7]: 4.74

C=C[C@]1(C)C=C2C(=O)C(O)=C3C(C)(C)[C@@H](O)CC[C@]3(C)[C@@]2(O)CC1
pIC50 (MCF7 [1]): 4.59

C=C[C@]1(C)C=C2C(=O)C(O)=C3[C@](C)(CO)CC=C[C@]3(C)[C@@]2(O)CC1
pIC50 (HCT-116 [8]): 4.82

C=C[C@@]1(C)CCC2=C([C@H](O)C(=O)[C@@]3(O)C(C)(C)CCC[C@]23C)[C@H]1O
pIC50 (MCF7 [1]): < 4.15

C[C@H]1CC[C@@]23C1=C[C@@]1(C)CC[C@](C)(C[C@H](O)[C@H](O)C4(C)CO4)[C@H]1[C@@H]2CC[C@@H]3C (stereo partly drawn)
pIC50 [7]: 4.74

C=C1[C@@]2(CCC(=O)OC2(C)C)CC[C@@]2(C)[C@]34C(=C)[C@@]5(C)OC(=O)[C@@]3(O[C@@]12[C@H]5O)[C@H](C)OC4=O
pIC50 [6]: 5.86

C=C1C2=CC[C@@H](C)[C@]1(C)CC[C@]1(C)O[C@H]1CC[C@@]1(C)O[C@@H]1C2=O
pIC50 [2]: 5.55

C[C@H]1CC[C@@]23C1=C[C@@]1(C)CC[C@](C)(C[C@H](O)[C@H](O)[C@@](C)(O)CO)[C@H]1[C@@H]2CC[C@@H]3C
pIC50 [7]: 4.74

C[C@H]1C[C@@H](O)[C@@]23C1=C[C@@]1(C)CC[C@](C)(C[C@H](O)[C@H](O)[C@@](C)(O)CO)[C@H]1[C@@H]2CC[C@@H]3C
pIC50 [7]: 4.74

C=C1[C@@H](OC(C)=O)[C@H]2[C@]3(C)[C@H]4CC(=O)C(C)(C)[C@]43C(=O)[C@]3(O)OC4=C(C)OC(=O)[C@@]1(C)[C@]4(C(=O)OC)[C@]23C
pIC50 (RAW264.7): 4.87

C[C@H]1CC[C@@]23C1=C[C@@]1(C)CC[C@](C)(C[C@H](O)[C@H](O)[C@@](C)(O)CO)[C@H]1[C@@H]2C[C@@H](O)[C@@H]3C
pIC50 [7]: 4.74

C[C@@H]1CC=C2C(=O)[C@H]3O[C@]3(C)CC[C@@H]3O[C@@]3(C)CC[C@@]1(C)[C@@H]2C
pIC50 [2]: 5.55

COc1cccc2c1C(=O)c1c(O)c3c(c(O)c1C2=O)C[C@@](O)(C(=O)CO)C[C@@H]3O[C@H]1C[C@H](N)[C@H](O)[C@H](C)O1 [DOXORUBICIN HYDROCHLORIDE]
inhibition in vivo at 5 mg/kg (MCF7 [13]): 46%

COc1ccc2c(c1)c(CC(=O)O)c(C)n2C(=O)c1ccc(Cl)cc1 [INDOMETHACIN]
pIC50 (RAW264.7): 4.62

CCOC(=O)C1=C[C@@H](OC(CC)CC)[C@H](NC(C)=O)[C@@H](N)C1 [OSELTAMIVIR]
pIC50 [6]: 6.00
